The target of this assay is Peptidyl-prolyl cis-trans isomerase FKBP1A (Homo sapiens, UniProt P62942). Nature of the assay: Binding affinity towards FK506 binding protein 12 as measured by displacement of a radiolabeled FK506 analogue.

Experimental findings from ChEMBL document CHEMBL1150439, “Synthesis and evaluation of dual domain macrocyclic FKBP12 ligands” (Bioorg Med Chem Lett, 1994) are described below.

A word on the Kd: it is a measure of binding affinity in units of concentration.

Chain of Peptidyl-prolyl cis-trans isomerase FKBP1A (P62942 whole entry): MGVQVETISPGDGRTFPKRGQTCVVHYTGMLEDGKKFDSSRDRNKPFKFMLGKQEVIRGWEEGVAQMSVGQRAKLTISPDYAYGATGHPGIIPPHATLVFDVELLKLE

On to `C=CCC1/C=C(\C)CCOC(=O)OC(=O)C2CC[C@@](C)(O2)C(=O)C(=O)C(=O)OC(=O)C(=O)N2CCCC[C@H]2C(=O)O[C@H](CCc2cccnc2)[C@H](C)CCC1=O` (some centres not stated), for which the Kd was 8 µM.
For `C=CCC1/C=C(\C)CCOC(=O)OC(=O)CCCCC(=O)C(=O)OC(=O)C(=O)N2CCCC[C@H]2C(=O)O[C@H](CCc2cccnc2)[C@H](C)CCC1=O` (some centres not stated) the value was 4.5 µM.
In turn, `C=CCC1/C=C(\C)CCOC(=O)OC(=O)CCC(=O)C(=O)OC(=O)C(=O)N2CCCC[C@H]2C(=O)O[C@H](CCc2cccnc2)[C@H](C)CCC1=O` (some centres not stated) displayed a Kd of 5.5 µM. The Kd values of the last two molecules are within 1.5-fold of each other.
With `C=CCC1/C=C(\C)CCOC(=O)OC(=O)CCCC(=O)C(=O)OC(=O)C(=O)N2CCCC[C@H]2C(=O)O[C@H](CCc2cccnc2)[C@H](C)CCC1=O` (some centres not stated) the figure was 2 µM.
With `C=CCC1/C=C(\C)CCCOC(=O)OC(=O)C2CC[C@@H](O2)C(=O)C(=O)C(=O)OC(=O)C(=O)N2CCCC[C@H]2C(=O)O[C@H](CCc2cccnc2)[C@H](C)CCC1=O` (some centres not stated) the figure was 0.2 µM; with `C=CCC1/C=C(\C)CCOC(=O)OC(=O)C2CC[C@@H](O2)C(=O)C(=O)C(=O)OC(=O)C(=O)N2CCCC[C@H]2C(=O)O[C@H](CCc2cccnc2)[C@H](C)CCC1=O` (some centres not stated), 0.4 µM; with `C=CCC1/C=C(\C)CCCOC(=O)OC(=O)C2CC[C@@](C)(O2)C(=O)C(=O)C(=O)OC(=O)C(=O)N2CCCC[C@H]2C(=O)O[C@H](CCc2cccnc2)[C@H](C)CCC1=O` (some centres not stated), 4 µM.
